Experimental data published in patent publication US6969609B1 (priority 1998, dated 2005).

Tested on: BMDC
Format: cell-based, C57BL/6 mice

TNF-α
B7-1 % positive cells: 85%
B7-1 MFI: (320)
B7-2 % positive cells: 71%
B7-2 MFI: (412)
CD11b % positive cells: 84%
CD11b MFI: (729)
CD11c % positive cells: 20%
CD11c MFI: (149)
CD40 % positive cells: 65%
CD40 MFI: (159)
H-2K^b/D^b % positive cells: 91%
H-2K^b/D^b MFI: (195)
I-A^b % positive cells: 95%
I-A^b MFI: (1189)
ICAM-1 % positive cells: 97%
ICAM-1 MFI: (421)
LFA-3 % positive cells: 87%
LFA-3 MFI: (249)
